Measurements reported in patent US12150995B2, “IRAK degraders and uses thereof” (Kymera Therapeutics, Inc., priority 2020, dated 2024).

The molecules below were run against T1, IRAK4 (Homo sapiens, UniProt Q9NWZ3) (assay: IRAK4 MSD Degradation in OCI-LY10). Settings: OCI-LY10 cells, Meso Scale Discovery, incubated 4 to 24 hours.
T1 construct: endogenous in cells; host or cells: OCI-LY10
T1 sequence (Q9NWZ3 1-460): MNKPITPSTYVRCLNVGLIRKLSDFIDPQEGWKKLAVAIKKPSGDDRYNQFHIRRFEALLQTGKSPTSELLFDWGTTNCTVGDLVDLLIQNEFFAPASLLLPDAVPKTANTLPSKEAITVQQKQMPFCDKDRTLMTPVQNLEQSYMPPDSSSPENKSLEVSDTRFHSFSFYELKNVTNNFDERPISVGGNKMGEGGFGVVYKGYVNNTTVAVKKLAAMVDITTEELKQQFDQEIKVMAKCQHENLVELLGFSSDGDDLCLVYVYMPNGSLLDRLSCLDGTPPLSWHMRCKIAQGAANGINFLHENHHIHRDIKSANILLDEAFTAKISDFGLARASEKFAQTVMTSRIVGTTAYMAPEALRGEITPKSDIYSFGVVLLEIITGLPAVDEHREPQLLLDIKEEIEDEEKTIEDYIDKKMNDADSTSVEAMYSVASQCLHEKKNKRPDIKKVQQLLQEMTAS
Format: cell-based
In short: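 IRAK4 degradation was quantified by Meso Scale electrochemiluminescence (anti-IRAK4 capture and detection antibodies) in lysates of treated OCI-LY10 cells. Compounds were dosed at 8 concentrations (1:3 dilutions, top 1 to 10 μM) for 4 to 24 h; DC50 derived by three-parameter logistic fitting.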

Row | DC50 [nM] | Compound
1 | 50 to 100 | Cc1cccc(C(=O)Nc2cc3sc([C@H]4CC[C@H](CN5CCO[C@@H](CCCNc6cccc7c6C(=O)N(C6CCC(=O)NC6=O)C7=O)C5)CC4)nc3cc2C(C)(C)O)n1 (stereo partly drawn) [I-472]
2 | 100 to 200 | Cc1cccc(C(=O)Nc2cc3sc([C@H]4CC[C@H](CN5C[C@@H]6C[C@H]5CN6CCNc5cccc6c5C(=O)N(C5CCC(=O)NC5=O)C6=O)CC4)nc3cc2C(C)(C)O)n1 (stereo partly drawn) [I-473]
3 | > 200 | Cc1cccc(C(=O)Nc2cc3sc([C@H]4CC[C@H](C(=O)N5CCC6(CC5)CC(CCNc5cccc7c5C(=O)N(C5CCC(=O)NC5=O)C7=O)C6)CC4)nc3cc2C(C)(C)O)n1 (stereo partly drawn) [I-474]
4 | < 10 | Cc1cccc(C(=O)Nc2cc3sc([C@H]4CC[C@H](CN5C[C@H]6C[C@@H]5CN6CCNc5cccc6c5C(=O)N(C5CCC(=O)NC5=O)C6=O)CC4)nc3cc2C(C)(C)O)n1 (stereo partly drawn) [I-475]
5 | > 200 | CN(CCCNc1cccc2c1C(=O)N(C1CCC(=O)NC1=O)C2=O)C[C@H]1CC[C@H](c2nc3cc(C(C)(C)O)c(NC(=O)c4cncc(Cl)c4)cc3s2)CC1 (stereo partly drawn) [I-476]
6 | 100 to 200 | Cc1cccc(C(=O)Nc2cc3sc([C@H]4CC[C@H](CN5CCO[C@H](CCCNc6cccc7c6C(=O)N(C6CCC(=O)NC6=O)C7=O)C5)CC4)nc3cc2C(C)(C)O)n1 (stereo partly drawn) [I-477]
7 | 10 to 50 | CC(C)(O)c1cc2nc([C@H]3CC[C@H](CN4CC5(CC(CCNc6cccc7c6C(=O)N(C6CCC(=O)NC6=O)C7=O)C5)C4)CC3)sc2cc1NC(=O)c1cncc(F)c1 (stereo partly drawn) [I-478]
8 | > 200 | COc1cc2nc([C@H]3CC[C@H](CN(C)CCCCNc4cccc5c4C(=O)N(C4CCC(=O)NC4=O)C5=O)CC3)sc2cc1NC(=O)c1cncc(F)c1 (stereo partly drawn) [I-479]
9 | > 200 | COc1cc2nc([C@H]3CC[C@H](CN(C)CCCCNc4cccc5c4C(=O)N(C4CCC(=O)NC4=O)C5=O)CC3)sc2cc1NC(=O)c1cncc(Cl)c1 (stereo partly drawn) [I-480]
10 | > 200 | COc1cc2nc([C@H]3CC[C@H](CN(C)CCNc4cccc5c4C(=O)N(C4CCC(=O)NC4=O)C5=O)CC3)sc2cc1NC(=O)c1cncc(F)c1 (stereo partly drawn) [I-481]
11 | > 200 | COc1cc2nc([C@H]3CC[C@H](CN(C)CCCNc4cccc5c4C(=O)N(C4CCC(=O)NC4=O)C5=O)CC3)sc2cc1NC(=O)c1cncc(F)c1 (stereo partly drawn) [I-482]
12 | > 200 | COc1cc2nc([C@H]3CC[C@H](CN(C)CCCNc4cccc5c4C(=O)N(C4CCC(=O)NC4=O)C5=O)CC3)sc2cc1NC(=O)c1cncc(Cl)c1 (stereo partly drawn) [I-483]
13 | > 200 | COc1cc2nc([C@H]3CC[C@H](CN(C)CCNc4cccc5c4C(=O)N(C4CCC(=O)NC4=O)C5=O)CC3)sc2cc1NC(=O)c1cncc(Cl)c1 (stereo partly drawn) [I-484]
14 | 10 to 50 | O=C1CCC(N2C(=O)c3cccc(NCCC4CC5(C4)CN(C[C@H]4CC[C@H](c6nc7cc(C(=O)O)c(NC(=O)c8cccc(C(F)(F)F)n8)cc7s6)CC4)C5)c3C2=O)C(=O)N1 (stereo partly drawn) [I-485]
15 | 100 to 200 | CC(C)(O)c1cc2nc([C@H]3CC[C@H](C(=O)N4CCC5(CC4)CC(CCNc4cccc6c4C(=O)N(C4CCC(=O)NC4=O)C6=O)C5)CC3)sc2cc1NC(=O)c1cccc(C(F)(F)F)n1 (stereo partly drawn) [I-486]
16 | 100 to 200 | CN(CCNc1cccc2c1C(=O)N(C1CCC(=O)NC1=O)C2=O)C(=O)[C@H]1CC[C@H](c2nc3cc(C(C)(C)O)c(NC(=O)c4cccc(C(F)(F)F)n4)cc3s2)CC1 (stereo partly drawn) [I-488]
17 | > 200 | CN(CCCNc1cccc2c1C(=O)N(C1CCC(=O)NC1=O)C2=O)C(=O)[C@H]1CC[C@H](c2nc3cc(C(C)(C)O)c(NC(=O)c4cccc(C(F)(F)F)n4)cc3s2)CC1 (stereo partly drawn) [I-489]
18 | > 200 | CN(CCCNc1cccc2c1C(=O)N(C1CCC(=O)NC1=O)C2=O)C[C@H]1CC[C@H](c2nc3cc(C(C)(C)O)c(NC(=O)c4cccc(C(F)(F)F)n4)cc3s2)CC1 (stereo partly drawn) [I-490]
19 | 50 to 100 | CC(C)(O)c1cc2nc([C@H]3CC[C@H](C(=O)N4CCC(CCNc5cccc6c5C(=O)N(C5CCC(=O)NC5=O)C6=O)CC4)CC3)sc2cc1NC(=O)c1cccc(C(F)(F)F)n1 (stereo partly drawn) [I-491]
20 | 10 to 50 | CN(CCNc1cccc2c1C(=O)N(C1CCC(=O)NC1=O)C2=O)C[C@H]1CC[C@H](c2nc3cc(C(C)(C)O)c(NC(=O)c4cccc(C(F)(F)F)n4)cc3s2)CC1 (stereo partly drawn) [I-492]
21 | < 10 | CC(C)(O)c1cc2nc([C@H]3CC[C@H](C(=O)N4CCN(CCCNc5cccc6c5C(=O)N(C5CCC(=O)NC5=O)C6=O)CC4)CC3)sc2cc1NC(=O)c1cccc(C(F)(F)F)n1 (stereo partly drawn) [I-493]
